Laboratory results published in patent US20200360260A1, “TOPICAL COMPOSITION COMPRISING ANTIMICROBIAL LIPID” (Conopco, Inc., d/b/a UNILEVER, priority 2017, published 2020).

Tests used:
Format in all cases: cell-based
Conditions in all cases: for combined effect with AMLs: in combination with AMLs
[1] = tested on: M. furfur (CBS1878); experiment: ΣFIC assay against M. furfur
Method: (§1) Method: ΣFIC Assay Against M. Furfur, S. Aureus and P Acnes
(§2) M. furfur (CBS1878) was inoculated into Pityrosporum Broth (PB, solution A) and incubated in a shaking incubator at 32° C. for 2 days. The suspension containing the microbe was then diluted 10-times by PB and incubated again at 32° C. for another 2 days. The inoculum was further diluted by PB to get around 10^4 cells /ml. S. aureus (ATCC 12600) was inoculated into Tryptone Soya Broth (TSB, Oxoid: CM0129) and incubated in a shaking incubator at 37° C. for 1 day. The suspension containing the microbe was then diluted 10-times with TSB and incubated again at 37° C. for another 1 day. The inoculum was further diluted by TSB to get around 10^5 cells/ml.
(§3) Honokiol (Ex. Sigma) 50 mg/ml in DMSO (50,000 ppm); Magnolol (Ex. Sigma) 50 mg/ml in DMSO (50,000 ppm); Sapienic acid (Ex. Parchem, CAS# 17004-51-2) 100 mg/ml in 100% ethanol (100,000 ppm); D-Sphingosine (Ex. Sigma S7049) 5 mg/ml in 50% ethanol (5,000 ppm); D-erythro-Dihydrosphingosine (Ex. Sigma D3314) 5 mg/ml in 50% ethanol (5,000 ppm); Phytosphingosine (Ex. Evonik) 5 mg/m stock in 50% ethanol (5,000 ppm); Palmitoleic acid (Ex. Sigma 76169) 100 mg/ml in 100% ethanol (100,000 ppm).
(§4) The ΣFIC test was conducted based on the principle previously described in Hall M J, Middleton R F, & Westmacott D (1983), The fractional inhibitory concentration (FIC) index as a measure of synergy. Journal of Antimicrobial Chemotherapy 11(5):427-433. The procedure is as follows:
(§5) Twenty (20) μl of compound A (honokiol or magnolol as applicable to the test) and 20 μl of compound B (a selection of different AMLs as applicable to the test) were mixed in corresponding wells of a 96-well plate. An amount of 160 μl of microbial suspension was dispensed in each well and the broth medium as taken as a blank control for comparison of results. The total reaction volume in each well was 200 μl.
(§6) Thereafter the 96-well plates were incubated in an incubator. In accordance with the test protocols that were followed, M. furfur was incubated aerobically at 32° C. for 1 day, S. aureus was incubated aerobically at 37° C. for 1 day and P. acnes was incubated anaerobically at 37° C. for 4 days. Thereafter 20 μl alamar blue (0.1%) was dispensed in each well and the procedure of incubation (as abovementioned) was repeated. Finally, the change in colour of the indicator was monitored to check for visible signs of microbial growth or inhibition of the growth. If the colour changed to red it indicated growth (of microbes) and blue indicated no growth or inhibition of growth.
(§7) After all the observations were recorded and tabulated, the Fractional Inhibition Concentration (FIC) was calculated. The combination effect of inhibitory antimicrobials is widely explored using the concept of the Fractional Concentration (FC) and Fractional Inhibitory Concentration (FIC). This parameter is defined as follows:
(§8) ΣFIC=FIC (component 1)+FIC (component 2)
(§9) The final concentration of each ingredient in ppm (parts per million) after (10-fold dilution) was as follows. Each of these concentrations was tried out to determine the FIC value for (either of) honokiol or magnolol in combination with one of the AMLs.

[2] = tested on: Propionibacterium acnes (ATCC 6919); experiment: ΣFIC assay against P. acnes
Method: as §1
Propionibacterium acnes (ATCC 6919) was inoculated from freezer into liquid Reinforced Clostridial Medium (RCM, HepoBio: HB0316) for 3 days (anaerobic conditions) growth at 37° C. The suspension containing the microbe was then diluted 10-times with RCM and incubated again under 37° C. for another 3 days. The inoculum was further diluted by RCM to get around 10^4 cells/ml.
as §3, §4, §5, §6, §7, §8, §9

[3] = tested on: S. aureus (ATCC 12600); experiment: ΣFIC assay against S. aureus
Method: as §1, §2, §3, §4, §5, §6, §7, §8, §9

SMILES: CCCCCCCCCCCCCCC[C@@H](O)[C@@H](N)CO [dihydrosphingosine, D-erythro-Dihydrosphingosine]
- The range of concentration of the ingredient (ppm) where the ΣFIC was less than 0.9: AML ([1]; in combination with honokiol): 31.25 to 125 ppm
- The range of concentration of the ingredient (ppm) where the ΣFIC was less than 0.9: AML ([1]; in combination with magnolol): 15.63 to 125 ppm
- The range of ratio of honokiol/AML (w/w) where ΣFIC was less than 0.9 [1]: 5 to 40 w/w
- The range of ratio of magnolol/AML (w/w) where ΣFIC was less than 0.9 [1]: 5 to 80 w/w
- The range of concentration of the ingredient (ppm) where the ΣFIC was less than 0.9: AML ([2]; in combination with honokiol): 0.63 to 2.50 ppm
- The range of concentration of the ingredient (ppm) where the ΣFIC was less than 0.9: AML ([2]; in combination with magnolol): 0.63 to 2.50 ppm
- The range of ratio of honokiol/AML (w/w) where ΣFIC was less than 0.9 [2]: 0.2 to 6.5 w/w
- The range of ratio of magnolol/AML (w/w) where ΣFIC was less than 0.9 [2]: 0.7 to 6.5 w/w
- The range of concentration of the ingredient (ppm) where the ΣFIC was less than 0.9: AML ([3]; in combination with honokiol): 0.63 to 2.50 ppm
- The range of concentration of the ingredient (ppm) where the ΣFIC was less than 0.9: AML ([3]; in combination with magnolol): 0.63 to 1.25 ppm
- The range of ratio of honokiol/AML (w/w) where ΣFIC was less than 0.9 [3]: 0.8 to 12.5 w/w
- The range of ratio of magnolol/AML (w/w) where ΣFIC was less than 0.9 [3]: 0.4 to 12.5 w/w

SMILES: C=CCc1ccc(O)c(-c2cc(CC=C)ccc2O)c1 [magnolol, Magnolol]
- combined effect with AMLs [1]: synergistic effect
- combined effect with AMLs [2]: synergistic effect
- combined effect with AMLs [3]: synergistic effect

SMILES: C=CCc1ccc(O)c(-c2ccc(O)c(CC=C)c2)c1 [honokiol, Honokiol]
- combined effect with AMLs [1]: synergistic effect
- combined effect with AMLs [2]: synergistic effect
- combined effect with AMLs [3]: synergistic effect

SMILES: CCCCCC/C=C\CCCCCCCC(=O)O [palmitoleic acid, Palmitoleic acid]
- The range of concentration of the ingredient (ppm) where the ΣFIC was less than 0.9: AML ([1]; in combination with honokiol): 625 to 5000 ppm
- The range of concentration of the ingredient (ppm) where the ΣFIC was less than 0.9: AML ([1]; in combination with magnolol): 625 to 5000 ppm
- The range of ratio of honokiol/AML (w/w) where ΣFIC was less than 0.9 [1]: 0.06 to 2 w/w
- The range of ratio of magnolol/AML (w/w) where ΣFIC was less than 0.9 [1]: 0.03 to 2 w/w
- The range of concentration of the ingredient (ppm) where the ΣFIC was less than 0.9: AML ([2]; in combination with honokiol): 1.95 to 7.81 ppm
- The range of concentration of the ingredient (ppm) where the ΣFIC was less than 0.9: AML ([2]; in combination with magnolol): 1.95 to 7.81 ppm
- The range of ratio of honokiol/AML (w/w) where ΣFIC was less than 0.9 [2]: 0.06 to 1 w/w
- The range of ratio of magnolol/AML (w/w) where ΣFIC was less than 0.9 [2]: 0.1 to 4 w/w
- The range of concentration of the ingredient (ppm) where the ΣFIC was less than 0.9: AML ([3]; in combination with honokiol): 3.91 to 62.5 ppm
- The range of concentration of the ingredient (ppm) where the ΣFIC was less than 0.9: AML ([3]; in combination with magnolol): 3.91 to 52.5 ppm
- The range of ratio of honokiol/AML (w/w) where ΣFIC was less than 0.9 [3]: 0.008 to 2 w/w
- The range of ratio of magnolol/AML (w/w) where ΣFIC was less than 0.9 [3]: 0.008 to 2 w/w

SMILES: CCCCCCCCC/C=C\CCCCC(=O)O [sapienic acid, Sapienic acid]
- The range of concentration of the ingredient (ppm) where the ΣFIC was less than 0.9: AML ([1]; in combination with honokiol): 625 to 2500 ppm
- The range of concentration of the ingredient (ppm) where the ΣFIC was less than 0.9: AML ([1]; in combination with magnolol): 625 to 5000 ppm
- The range of ratio of honokiol/AML (w/w) where ΣFIC was less than 0.9 [1]: 0.25 to 1 w/w
- The range of ratio of magnolol/AML (w/w) where ΣFIC was less than 0.9 [1]: 0.06 to 2 w/w
- The range of concentration of the ingredient (ppm) where the ΣFIC was less than 0.9: AML ([2]; in combination with honokiol): 1.95 to 3.91 ppm
- The range of concentration of the ingredient (ppm) where the ΣFIC was less than 0.9: AML ([2]; in combination with magnolol): 1.95 to 3.91 ppm
- The range of ratio of honokiol/AML (w/w) where ΣFIC was less than 0.9 [2]: 0.25 to 1 w/w
- The range of ratio of magnolol/AML (w/w) where ΣFIC was less than 0.9 [2]: 0.25 to 1 w/w
- The range of concentration of the ingredient (ppm) where the ΣFIC was less than 0.9: AML ([3]; in combination with honokiol): 3.91 to 62.5 ppm
- The range of concentration of the ingredient (ppm) where the ΣFIC was less than 0.9: AML ([3]; in combination with magnolol): 1.95 to 31.25 ppm
- The range of ratio of honokiol/AML (w/w) where ΣFIC was less than 0.9 [3]: 0.008 to 2 w/w
- The range of ratio of magnolol/AML (w/w) where ΣFIC was less than 0.9 [3]: 0.01 to 4 w/w

SMILES: CCCCCCCCCCCCC/C=C/[C@@H](O)[C@@H](N)CO [sphingosine, D-Sphingosine]
- The range of concentration of the ingredient (ppm) where the ΣFIC was less than 0.9: AML ([1]; in combination with honokiol): 31.25 to 250 ppm
- The range of concentration of the ingredient (ppm) where the ΣFIC was less than 0.9: AML ([1]; in combination with magnolol): 31.25 to 125 ppm
- The range of ratio of honokiol/AML (w/w) where ΣFIC was less than 0.9 [1]: 1.25 to 40 w/w
- The range of ratio of magnolol/AML (w/w) where ΣFIC was less than 0.9 [1]: 5 to 40 w/w
- The range of concentration of the ingredient (ppm) where the ΣFIC was less than 0.9: AML ([2]; in combination with honokiol): 0.31 to 1.25 ppm
- The range of concentration of the ingredient (ppm) where the ΣFIC was less than 0.9: AML ([2]; in combination with magnolol): 0.31 to 1.25 ppm
- The range of ratio of honokiol/AML (w/w) where ΣFIC was less than 0.9 [2]: 0.7 to 13 w/w
- The range of ratio of magnolol/AML (w/w) where ΣFIC was less than 0.9 [2]: 1.5 to 13 w/w
- The range of concentration of the ingredient (ppm) where the ΣFIC was less than 0.9: AML ([3]; in combination with honokiol): 0.31 to 1.25 ppm
- The range of concentration of the ingredient (ppm) where the ΣFIC was less than 0.9: AML ([3]; in combination with magnolol): 0.31 to 0.63 ppm
- The range of ratio of honokiol/AML (w/w) where ΣFIC was less than 0.9 [3]: 0.8 to 25 w/w
- The range of ratio of magnolol/AML (w/w) where ΣFIC was less than 0.9 [3]: 1.5 to 25 w/w

SMILES: CCCCCCCCCCCCCC[C@@H](O)[C@@H](O)[C@@H](N)CO [phytosphingosine, Phytosphingosine]
- The range of concentration of the ingredient (ppm) where the ΣFIC was less than 0.9: AML ([1]; in combination with honokiol): 15.63 to 62.5 ppm
- The range of concentration of the ingredient (ppm) where the ΣFIC was less than 0.9: AML ([1]; in combination with magnolol): 3.91 to 62.5 ppm
- The range of ratio of honokiol/AML (w/w) where ΣFIC was less than 0.9 [1]: 10 to 80 w/w
- The range of ratio of magnolol/AML (w/w) where ΣFIC was less than 0.9 [1]: 10 to 320 w/w
- The range of concentration of the ingredient (ppm) where the ΣFIC was less than 0.9: AML ([2]; in combination with honokiol): 1.25 to 5.00 ppm
- The range of concentration of the ingredient (ppm) where the ΣFIC was less than 0.9: AML ([2]; in combination with magnolol): 0.63 to 5.00 ppm
- The range of ratio of honokiol/AML (w/w) where ΣFIC was less than 0.9 [2]: 0.2 to 3.2 w/w
- The range of ratio of magnolol/AML (w/w) where ΣFIC was less than 0.9 [2]: 0.4 to 12.5 w/w
- The range of concentration of the ingredient (ppm) where the ΣFIC was less than 0.9: AML ([3]; in combination with honokiol): 0.63 to 5.00 ppm
- The range of concentration of the ingredient (ppm) where the ΣFIC was less than 0.9: AML ([3]; in combination with magnolol): 0.63 to 2.50 ppm
- The range of ratio of honokiol/AML (w/w) where ΣFIC was less than 0.9 [3]: 0.4 to 12.5 w/w
- The range of ratio of magnolol/AML (w/w) where ΣFIC was less than 0.9 [3]: 0.2 to 12.5 w/w
